# Test results from US8716276B2, “Thiophenyl and pyrrolyl azepines as serotonin 5-HT2C receptor ligands and uses thereof” (Athersys, Inc., priority 2006, dated 2014).
# Target: T1, human 5HT2c receptor (VNV Isoform) (Homo sapiens, UniProt P28335, I156V/I160V)
# T1 construct: expressed in transfected cells; host or cells: HEK 293 EBNA
# T1 sequence (P28335 33-458 I156V/I160V): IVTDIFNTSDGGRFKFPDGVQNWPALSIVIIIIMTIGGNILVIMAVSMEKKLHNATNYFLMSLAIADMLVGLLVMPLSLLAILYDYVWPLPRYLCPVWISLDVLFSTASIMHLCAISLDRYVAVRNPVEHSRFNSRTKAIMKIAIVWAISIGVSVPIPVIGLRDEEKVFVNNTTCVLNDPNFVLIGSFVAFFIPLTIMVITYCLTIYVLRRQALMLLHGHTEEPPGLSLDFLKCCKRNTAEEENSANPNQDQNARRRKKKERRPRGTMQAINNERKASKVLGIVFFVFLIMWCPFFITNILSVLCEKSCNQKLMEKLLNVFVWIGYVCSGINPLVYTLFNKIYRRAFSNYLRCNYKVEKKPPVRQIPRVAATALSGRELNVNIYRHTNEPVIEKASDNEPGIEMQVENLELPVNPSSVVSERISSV
# Test: Calcium mobilization (FLIPR) 5HT2c receptor agonist assay
# Format: cell-based
# Conditions: HEK 293 EBNA cells expressing human 5HT2c receptor (VNV isoform), agonist-induced calcium fluorescence, read-out: 5-HT2c EC50 (hVNV)
# Protocol: The following procedure was utilized to evaluate representative compounds of the present invention as 5HT2c, receptor agonists.
# 5HT was utilized as a positive control. Ligand-induced calcium release and consequent fluorescence was measured on a Fluorometric Imaging Plate Reader (FLIPR, Molecular Device, CA).
# All data were analyzed by nonlinear least square curve fitting using Prism 4.0 software. Agonist stimulation of calcium-induced fluorescence in FLIPR was fitted to sigmoidal dose response using equation Y=Bottom+(Top−Bottom)/(1+10^((Log EC50−X))), where X is the logarithm of concentration of compounds and Y is the fluorescent response.
row,SMILES,EC50 [nM]
1,"CC1(C)CC(C(F)(F)F)c2sc3c(c21)CCNCC3 (racemic) [Example 7, (R,S)-3,3-Dimethyl-1-trifluoromethyl-1,2,3,4,5,6,7,8-octahydro-9-thia-6-aza-cyclopenta[a]azulene]",< 1000
2,"FC(F)(F)Cc1sc2c3c1CCC3CNCC2 (racemic) [Example 13, (R,S)-2-(2,2,2-Trifluoro-ethyl)-4,4a,5,6,7,8-hexahydro-3H-1-thia-6-aza-cyclopenta[cd]azulene]",< 100
3,"CC1(C)CC2CNCCc3sc(Br)c1c32 (racemic) [Example 14, (R,S)-2-Bromo-3,3-dimethyl-4,4a,5,6,7,8-hexahydro-3H-1-thia-6-aza-cyclopenta[cd]azulene]",< 1000
4,"CC1Cc2cc(Br)sc2CCN1 (racemic) [Example 15, (R,S)-2-Bromo-5-methyl-5,6,7,8-tetrahydro-4H-thieno[2,3-d]azepine]",< 1000
5,"CC1CNCCc2sc3c(c21)C(C)(C)CC3C(F)(F)F (single isomer, unassigned) [17 Diastereomer 2]",< 1000
6,"CCS(=O)(=O)c1sc2c(c1C)C(C)CNCC2 (single isomer, unassigned) [Example 10, 2-Ethanesulfonyl-3,4-dimethyl-5,6,7,8-tetrahydro-4H-thieno[2,3-d]azepine]",< 100
7,"CC1CNCCc2sc(C(=O)C(C)(C)C)c(Br)c21 (single isomer, unassigned) [Example 12, 1-(3-Bromo-4-methyl-5,6,7,8-tetrahydro-4H-thieno[2,3-d]azepin-2-yl)-2,2-dimethyl-propan-1-one]",< 100
8,"CC1CNCCc2sc3c(c21)CCC3C(F)(F)F (single isomer, unassigned) [Example 16, 4-Methyl-1-trifluoromethyl-1,2,3,4,5,6,7,8-octahydro-9-thia-6-aza-cyclopenta[a]azulene]",< 100
9,"Cc1c(C(=O)C(C)(C)C)sc2c1CCNCC2 [Example 1, 2,2-Dimethyl-1-(3-methyl-5,6,7,8-tetrahydro-4H-thieno[2,3-d]azepin-2-yl)-propan-1-one]",< 100
10,"CC(C)(c1cc2c(s1)CCNCC2)C(F)(F)F [Example 8, 2-(2,2,2-Trifluoro-1,1-dimethyl-ethyl)-5,6,7,8-tetrahydro-4H-thieno[2,3-d]azepine]",< 100
11,"CC(C)(C)C(=O)c1sc2c(c1Cl)CCNCC2 [Example 19, 1-(3-Chloro-5,6,7,8-tetrahydro-4H-thieno[2,3-d]azepin-2-yl)-2,2-dimethyl-propan-1-one]",< 100

# Second part, the compound after the results:
row,EC50 [nM],SMILES
1,< 10,"CC(c1cc2c(s1)CCNCC2)C(F)(F)F (racemic) [Example 4, (R,S)-2-(2,2,2-Trifluoro-1-methyl-ethyl)-5,6,7,8-tetrahydro-4H-thieno[2,3-d]azepine]"
2,< 10,"FC(F)(F)C1CCc2c1sc1c2CCNCC1 (racemic) [Example 6, (R,S)-1-Trifluoromethyl-1,2,3,4,5,6,7,8-octahydro-9-thia-6-aza-cyclopenta[a]azulene]"
3,< 100,"CC1CNCCc2sc(C(=O)C(C)(C)C)cc21 (racemic) [Example 11, (R,S)-2,2-Dimethyl-1-(4-methyl-5,6,7,8-tetrahydro-4H-thieno[2,3-d]azepin-2-yl)-propan-1-one]"
4,< 100,"CC1CNCCc2sc3c(c21)C(C)(C)CC3C(F)(F)F (single isomer, unassigned) [17 Diastereomer 1]"
5,< 100,"CC1CNCCc2sc(CC(F)(F)F)c(Br)c21 (single isomer, unassigned) [Example 9, 3-Bromo-4-methyl-2-(2,2,2-trifluoro-ethyl)-5,6,7,8-tetrahydro-4H-thieno[2,3-d]azepine]"
6,< 10,"FC(F)(F)Cc1sc2c(c1Br)CCNCC2 [Example 2, 3-Bromo-2-(2,2,2-trifluoro-ethyl)-5,6,7,8-tetrahydro-4H-thieno[2,3-d]azepine]"
7,< 10,"O=S(=O)(c1ccccc1)c1cc2c(s1)CCNCC2 [Example 3, 2-Benzenesulfonyl-5,6,7,8-tetrahydro-4H-thieno[2,3-d]azepine]"
8,< 10,"CCS(=O)(=O)c1cc2c(s1)CCNCC2 [Example 5, 2-Ethanesulfonyl-5,6,7,8-tetrahydro-4H-thieno[2,3-d]azepine]"
9,< 10,"CC(C)(C)C(=O)c1cc2c(s1)CCNCC2 [Example 18, 2,2-Dimethyl-1-(5,6,7,8-tetrahydro-4H-thieno[2,3-d]azepin-2-yl)-propan-1-one]"
